Literature values as cited in publication PMC9762682, “Tocotrienols: Exciting Biological and Pharmacological Properties of Tocotrienols and Naturally Occurring Compounds, Part II” (Annals of clinical case reports, 2022).
Where two headings read alike, the source gives them in different places. Marks after values point to notes of the source that are not given here.

Assays:
B-Lymphocyte cells = tested on: B-Lymphocyte cells; design: method as in PMID 29606130; value at effective dose: unit not given here;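 for IC50: anti-proliferation of cancer cells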
Pancreas cancer cells = tested on: Pancreas cancer cells; design: method as in PMID 29606130
[1] = design: method as in ref 16 = [16]; PMID 27493840; doi:10.4172/2155-9880.1000434; 16. Qureshi AA , Khan DA , Silswal N , Saleem S , Qureshi N . Evaluation of pharmacokinetics and bioavailability of higher doses of δ-tocotrienol in healthy fed humans . J Clin Exp Cardiol . 2016; 7
[2] = tested on: plasma total mRNAs gene expression; design: method as in PMID 30031388
T-cells (Jurkat) = tested on: T-cells (Jurkat); design: method as in PMID 29606130
Breast cancer cells = tested on: Breast cancer cells; design: method as in PMID 29606130; value at effective dose: unit not given here;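 for IC50: anti-proliferation of cancer cells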
[3] = tested on: 20S rabbit muscle proteasome
[4] = plasma tocol after single dose 750 mg δ-tocotrienol
[5] = plasma tocol after single dose 750 mg δ-tocotrienol, listed as δ-tocotrienol
[6] = plasma tocol after single dose 1000 mg δ-tocotrienol
[7] = plasma tocol after single dose 1000 mg δ-tocotrienol, listed as δ-tocotrienol
[8] = hepatitis C patients, plasma total mRNAs, pre-dose vs post-dose

IC50 (B-Lymphocyte cells): 10 µM
percentage of control at IC50 dose (B-Lymphocyte cells): 55%
IC50 (Pancreas cancer cells): 10 µM
percentage of control at IC50 dose (Pancreas cancer cells): 36%
plasma tocol level ([1]; 0 Hr., single dose 750 mg δ-tocotrienol): 132 ± 12 ng/mL
plasma tocol level ([1]; 0 Hr., single dose 1000 mg δ-tocotrienol): 360 ± 20 ng/mL
Time of clearance (Cl-T) ([1]; 750 mg/d): 0.086 h⁻¹
Time of clearance (Cl-T) ([1]; 1000 mg/d): 0.078 h⁻¹
plasma tocol level ([1]; 1 hr., single dose 750 mg δ-tocotrienol): 310 ± 28 ng/mL
plasma tocol level ([1]; 1 hr., single dose 1000 mg δ-tocotrienol): 993 ± 33 ng/mL
plasma tocol level ([1]; 2 hr., single dose 750 mg δ-tocotrienol): 877 ± 24 ng/mL
plasma tocol level ([1]; 2 hr., single dose 1000 mg δ-tocotrienol): 1593 ± 44 ng/mL
plasma tocol level ([1]; 4 hr., single dose 750 mg δ-tocotrienol): 1444 ± 53 ng/mL
plasma tocol level ([1]; 4 hr., single dose 1000 mg δ-tocotrienol): 884 ± 45 ng/mL
plasma tocol level ([1]; 6 hr., single dose 750 mg δ-tocotrienol): 759 ± 30 ng/mL
plasma tocol level ([1]; 6 hr., single dose 1000 mg δ-tocotrienol): 562 ± 47 ng/mL
plasma tocol level ([1]; 8 hr., single dose 750 mg δ-tocotrienol): 523 ± 13 ng/mL
Area Under the Curve-t0 - t8 (AUC0-8) [1, 4]: 6620.87 ± 49.67^a ^* ng/ml
Area Under the Curve-t0 - ∞ (AUC0-∞) [1, 4]: 8687.69 ± 201.01^a ^* ng/ml
Elimination of Half-life time (t1/2) [1, 4]: 2.74 ± 0.13^a h
Elimination rate constant (ke) [1, 4]: 0.253 ± 0.167^a h-1
Peak Plasma Concentration (Cmax) [1, 4]: 1444.23 ± 53.07^a ng/ml
Time of clearance (Cl-T) [1, 4]: 0.086 ± 0.002^a I/h
Time to achieve plasma peak (Tmax) [1, 4]: 4.00^a h
Area Under the Curve-t0 - t8 (AUC0-8) [1, 5]: 6620 ng·h/mL
Area Under the Curve-t0 - ∞ (AUC0-∞) [1, 5]: 8690 ng·h/mL
Elimination rate constant (ke) [1, 5]: 0.25 h⁻¹
Peak Plasma Concentration (Cmax) [1, 5]: 1444 ng/mL
Area Under the Curve-t0 - t8 (AUC0-8) [1, 6]: 7450.10 ± 89.01^a ^* ng/ml
Area Under the Curve-t0 - ∞ (AUC0-∞) [1, 6]: 9633.18 ± 382.98^a ^* ng/ml
Elimination of Half-life time (t1/2) [1, 6]: 2.68 ± 0.29^a h
Elimination rate constant (ke) [1, 6]: 0.260 ± 0.143^a h-1
Peak Plasma Concentration (Cmax) [1, 6]: 1591.89 ± 43.97^a ng/ml
Time of clearance (Cl-T) [1, 6]: 0.078 ± 0.003^a I/h
Time to achieve plasma peak (Tmax) [1, 6]: 4.00^a h
Area Under the Curve-t0 - t8 (AUC0-8) [1, 7]: 7450 ng·h/mL
Area Under the Curve-t0 - ∞ (AUC0-∞) [1, 7]: 9630 ng·h/mL
Peak Plasma Concentration (Cmax) [1, 7]: 1592 ng/mL
Total tocols (sum of 0-8 h) ([1]; single dose 750 mg δ-tocotrienol): 4045 ng/mL
Expr. Fold Change: CYP2R1 [2, 8]: −8.682
IC50 (T-cells (Jurkat)): 20 µM
percentage of control at IC50 dose (T-cells (Jurkat)): 32%
IC50 (Breast cancer cells): 10 µM
percentage of control at IC50 dose (Breast cancer cells): 49%
Structure (SMILES): CC(C)=CCC/C(C)=C/CC/C(C)=C/CC[C@]1(C)CCc2cc(O)cc(C)c2O1 [δ-Tocotrienol]
effective dose (B-Lymphocyte cells): 20 µM
percentage of control at effective dose (B-Lymphocyte cells): 21%
value at effective dose (B-Lymphocyte cells): 2.7 ± 1.5
effective dose (Pancreas cancer cells; 48 h): 20 µM
percentage of control at effective dose (Pancreas cancer cells; 48 h): 5%
side effects in hepatitis C patients ([2]; chronic hepatitis C patients): without any side-effect
Expr. Fold Change: AKR1D1 [2, 8]: 14.056
Expr. Fold Change: APOBEC3A [2, 8]: −8.163
Expr. Fold Change: ATF4 [2, 8]: −9.515
Expr. Fold Change: ATG3 [2, 8]: −8.376
Expr. Fold Change: ATP1A1 [2, 8]: −8.014
Expr. Fold Change: CERS3 [2, 8]: 19.082
Expr. Fold Change: COX14 [2, 8]: −9.447
Expr. Fold Change: CREB1 [2, 8]: −8.452
Expr. Fold Change: CXCR2 [2, 8]: −8.208
Expr. Fold Change: CYB5R4 [2, 8]: −8.367
Expr. Fold Change: FRS2 [2, 8]: −9.962
Expr. Fold Change: GPR65 [2, 8]: −9.054
Expr. Fold Change: GPS2 [2, 8]: −9.56
Expr. Fold Change: GTPBP8 [2, 8]: −10.19
Expr. Fold Change: GYS1 [2, 8]: −9.027
Expr. Fold Change: HBG1 [2, 8]: 17.945
Expr. Fold Change: HBG2 [2, 8]: 11.413
Expr. Fold Change: HHIPL2 [2, 8]: 28.710
Expr. Fold Change: HIST1H2AD [2, 8]: 1804955.068
Expr. Fold Change: HSP90AB1 [2, 8]: −8.049
Expr. Fold Change: HSPA14 [2, 8]: −10.978
Expr. Fold Change: ID2 [2, 8]: −14.133
Expr. Fold Change: IFNGR2 [2, 8]: −13.844
Expr. Fold Change: IGF2R [2, 8]: −8.68
Expr. Fold Change: IGSF6 [2, 8]: −8.712
Expr. Fold Change: IL2RG [2, 8]: −16.787
Expr. Fold Change: IL16 [2, 8]: −8.239
Expr. Fold Change: IL27RA [2, 8]: −12.004
Expr. Fold Change: ILF2 [2, 8]: −9.105
Expr. Fold Change: IRF2 [2, 8]: −22.655
Expr. Fold Change: KLRC4-KLRK1/KLRK1 [2, 8]: −1565687.642
Expr. Fold Change: MKX [2, 8]: 9.573
Expr. Fold Change: MT-TQ [2, 8]: 14.252
Expr. Fold Change: NDUFA11 [2, 8]: −8.686
Expr. Fold Change: NDUFB1 [2, 8]: −8.566
Expr. Fold Change: NDUFB9 [2, 8]: −8.354
Expr. Fold Change: NFIL3 [2, 8]: −9.568
Expr. Fold Change: OSBPL11 [2, 8]: −9.201
Expr. Fold Change: P4HA3 [2, 8]: 8.686
Expr. Fold Change: PDE3B [2, 8]: −8.568
Expr. Fold Change: PECAM1 [2, 8]: −9.552
Expr. Fold Change: PIAS1 [2, 8]: −9.326
Expr. Fold Change: PIBF1 [2, 8]: −9.876
Expr. Fold Change: PRPF18 [2, 8]: −8.777
Expr. Fold Change: PSMA5 [2, 8]: −9.31
Expr. Fold Change: PSMB4 [2, 8]: −10.119
Expr. Fold Change: PSMB8 [2, 8]: −9.709
Expr. Fold Change: PSMC3 [2, 8]: −8.346
Expr. Fold Change: PTGS2 [2, 8]: −25.841
Expr. Fold Change: RAP2C [2, 8]: −9.792
Expr. Fold Change: RPP38 [2, 8]: 24.946
Expr. Fold Change: RPS26 [2, 8]: −9.456
Expr. Fold Change: SCP2 [2, 8]: −13.672
Expr. Fold Change: SERP1 [2, 8]: −8.872
Expr. Fold Change: SFPQ [2, 8]: −9.469
Expr. Fold Change: TLR8 [2, 8]: −11.975
Expr. Fold Change: TNFAIP8 [2, 8]: −10.974
Expr. Fold Change: TNFRSF1B [2, 8]: −8.746
Expr. Fold Change: TRAF7 [2, 8]: −9.341
Expr. Fold Change: TSPAN15 [2, 8]: 11.523
Expr. Fold Change: TUSC2 [2, 8]: −15.922
Expr. Fold Change: UBA52 [2, 8]: −10.176
Expr. Fold Change: UBE2J1 [2, 8]: −8.874
Expr. Fold Change: UBE4A [2, 8]: −10.189
Expr. Fold Change: UBP1 [2, 8]: −9.718
Expr. Fold Change: USP15 [2, 8]: −10.16
Expr. Fold Change: USP19 [2, 8]: −10.713
Expr. Fold Change: USP25 [2, 8]: −9.911
Expr. Fold Change: VEGFA [2, 8]: −8.933
Expr. Fold Change: mir-140 [2, 8]: −5668.259
Expr. Fold Change: mir-877 [2, 8]: −4497.07
Expr. Fold Change: mir-1250 [2, 8]: −4755.79
expression of pro-inflammatory cytokines (TNF-α, VCAM1, proteasome subunits) ([2]; plasma total mRNAs after δ-tocotrienol feeding to hepatitis C patients): significant inhibition
expression of ICAM1 and IFN-γ ([2]; plasma total mRNAs after δ-tocotrienol feeding to hepatitis C patients, post-treatment): induction
effective dose (Breast cancer cells): 20 µM
percentage of control at effective dose (Breast cancer cells): 56%
value at effective dose (Breast cancer cells): 10.7 ± 0.6
chymotrypsin-like activity of 20S rabbit muscle proteasome ([3]; 40 μM): inhibition
chymotrypsin-like activity of 20S rabbit muscle proteasome ([3]; 80 μM): activation
